Molecular target: T1, human HSL (Homo sapiens, UniProt Q05469)
T1 construct: generate a full length human HSL ORF with a 3′-His6 tag; made in house; host or cells: High 5 insect cells (baculovirus, pFast-BAC)
T1 sequence (Q05469 1-1076): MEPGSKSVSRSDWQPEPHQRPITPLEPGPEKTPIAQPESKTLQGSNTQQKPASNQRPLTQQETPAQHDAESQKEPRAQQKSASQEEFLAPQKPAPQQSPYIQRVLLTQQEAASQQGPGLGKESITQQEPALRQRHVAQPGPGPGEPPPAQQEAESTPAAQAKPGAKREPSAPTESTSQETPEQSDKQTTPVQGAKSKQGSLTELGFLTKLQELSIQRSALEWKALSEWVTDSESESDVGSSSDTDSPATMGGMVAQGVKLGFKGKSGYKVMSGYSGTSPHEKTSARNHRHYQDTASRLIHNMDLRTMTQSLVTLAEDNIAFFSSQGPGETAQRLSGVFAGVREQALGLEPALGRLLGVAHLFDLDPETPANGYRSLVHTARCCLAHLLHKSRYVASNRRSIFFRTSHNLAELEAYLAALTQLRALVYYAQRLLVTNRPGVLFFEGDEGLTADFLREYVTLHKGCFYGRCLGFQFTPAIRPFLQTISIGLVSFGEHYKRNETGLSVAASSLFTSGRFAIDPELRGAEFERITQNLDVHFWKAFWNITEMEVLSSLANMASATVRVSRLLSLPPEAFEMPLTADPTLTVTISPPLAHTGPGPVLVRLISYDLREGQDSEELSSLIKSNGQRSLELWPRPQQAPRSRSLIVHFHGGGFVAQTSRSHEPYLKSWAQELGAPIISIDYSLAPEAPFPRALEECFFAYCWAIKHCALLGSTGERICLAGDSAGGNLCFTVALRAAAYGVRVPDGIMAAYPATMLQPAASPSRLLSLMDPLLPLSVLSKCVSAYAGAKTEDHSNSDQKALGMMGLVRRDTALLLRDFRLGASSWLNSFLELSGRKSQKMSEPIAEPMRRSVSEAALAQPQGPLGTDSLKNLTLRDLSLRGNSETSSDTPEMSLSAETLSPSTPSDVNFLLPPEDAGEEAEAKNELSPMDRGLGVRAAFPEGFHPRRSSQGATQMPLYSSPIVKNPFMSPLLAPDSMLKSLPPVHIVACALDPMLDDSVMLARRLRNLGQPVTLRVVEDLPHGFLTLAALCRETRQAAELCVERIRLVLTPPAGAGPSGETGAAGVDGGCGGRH
Experiment: Human Hormone-Sensitive Lipase (HSL) enzyme inhibition assay (colorimetric, DMPT substrate)
Assay type: biochemical
Conditions: human full length HSL-His6, 2,3-dimercapto-1-propanol tributyrate substrate, 37° C. 20 minutes, absorbance at 405 nm; read-out: HSL hum IC50
In short: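 Full-length human HSL with C-terminal His6, expressed in baculovirus-infected High 5 cells and Ni-NTA purified, was added (15 ug/ml stock) to 1.5 mM DMPT in 100 mM MOPS pH 7.2, 0.2 mg/ml fatty acid-free BSA containing compound. After 20 min at 37 °C, DTNB with SDS/Triton X-100 was added; A405 read after 15 min at RT.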

Row | IC50 [nM] | SMILES
1 | 70 | O=C1N(c2ccc(OCC(F)(F)F)cc2)CC[C@]12CC[C@@](O)(COc1cccc(F)c1)CC2 [Example 262, (5α,8α)-8-(3-Fluoro-phenoxymethyl)-8-hydroxy-2-[4-(2,2,2-trifluoro-ethoxy)-phenyl]-2-aza-spiro[4.5]decan-1-one]
2 | 110 | CC(C)(C)c1ccc(N2CCC3(CCC(C(O)C(F)(F)F)CC3)C2=O)cc1 (single isomer, unassigned) [Example 361, (5α,8α)-2-(4-tert-Butyl-phenyl)-8-(2,2,2-trifluoro-1-hydroxy-ethyl)-2-aza-spiro[4.5]decan-1-one]
3 | 20 | Cc1cc(C[C@]2(O)CC[C@]3(CCN(c4ccc(OC(C)C)cc4)C3=O)CC2)no1 [Example 220]
4 | 800 | O=C1N(c2ccc(C3CC3)cc2)CC[C@]12CC[C@](O)(COCC(F)(F)F)CC2 [Example 288, (5α,8β)-2-(4-Cyclopropyl-phenyl)-8-hydroxy-8-(2,2,2-trifluoro-ethoxymethyl)-2-aza-spiro[4.5]decan-1-one]
5 | 80 | O=c1ccccn1C[C@]1(O)CC[C@@]2(CCN(c3ccc(OCC(F)(F)F)cc3)C2=O)CC1 [Example 370, (5α,8β)-8-Hydroxy-8-(2-oxo-2H-pyridin-1-ylmethyl)-2-[4-(2,2,2-trifluoro-ethoxy)-phenyl]-2-aza-spiro[4.5]decan-1-one]
6 | 120 | C=C(C)[C@]1(O)CC[C@]2(CCN(c3ccc(CCOC)cc3)C2=O)CC1 [Example 127, (5α,8α)-8-Hydroxy-8-isopropenyl-2-[4-(2-methoxy-ethyl)-phenyl]-2-aza-spiro[4.5]decan-1-one]
7 | 300 | O=C1N(c2ccc([C@@H](O)C(F)(F)F)cc2)CC[C@]12CC[C@@](O)(COCC(F)F)CC2 [Example 160, (5α,8α)-8-(2,2-Difluoro-ethoxymethyl)-8-hydroxy-2-[4-((R)-2,2,2-trifluoro-1-hydroxy-ethyl)-phenyl]-2-aza-spiro[4.5]decan-1-one]
8 | 10 | C[C@@H](Oc1ccc(N2CC[C@]3(CC[C@@](O)(COCC(F)(F)F)CC3)C2=O)cc1)C(F)(F)F [Example 285, (5α,8α)-8-Hydroxy-8-(2,2,2-trifluoro-ethoxymethyl)-2-[4-((R)-2,2,2-trifluoro-1-methyl-ethoxy)-phenyl]-2-aza-spiro[4.5]decan-1-one]
9 | 1650 | CC(C)[C@]1(O)CC[C@@]2(CCN(c3ccc(O[C@@H](C)C(F)(F)F)nc3)C2=O)CC1 [Example 149, (5α,8β)-8-Hydroxy-8-isopropyl-2-[6-((S)-2,2,2-trifluoro-1-methyl-ethoxy)pyridin-3-yl]-2-aza-spiro[4.5]decan-1-one]
10 | 60 | O=C(NCc1cccc(F)c1)O[C@H]1CC[C@@]2(CCN(c3ccc(OC(F)(F)F)cc3)C2=O)CC1 [Example 10, (3-Fluoro-benzyl)-carbamic acid [(5α,8β)-1-oxo-2-(4-trifluoromethoxy-phenyl)-2-aza-spiro[4.5]dec-8-yl]ester]
11 | 630 | CCCOC[C@]1(O)CC[C@@]2(CCN(c3ccc(OCC(F)(F)F)cc3)C2=O)CC1 [Example 235, (5α,8β)-8-Hydroxy-8-propoxymethyl-2-[4-(2,2,2-trifluoro-ethoxy)-phenyl]-2-aza-spiro[4.5]decan-1-one]
12 | 40 | CCc1ccc(N2CC[C@]3(CC[C@@](O)(COCC(F)F)CC3)C2=O)cc1 [Example 265, (5α,8α)-8-(2,2-Difluoro-ethoxymethyl)-2-(4-ethyl-phenyl)-8-hydroxy-2-aza-spiro[4.5]decan-1-one]
13 | 10 | O=C1N(c2ccc(OCC(F)(F)F)cc2)CC[C@]12CC[C@@](O)(COCC1CCC1)CC2 [Example 255, (5α,8α)-8-[(Cyclobutylmethoxy)methyl]-8-hydroxy-2-[4-(2,2,2-trifluoro-ethoxy)-phenyl]-2-aza-spiro[4.5]decan-1-one]
14 | 160 | CCO[C@H](c1ccc(N2CC[C@]3(CC[C@@](O)(COC)CC3)C2=O)cc1)C(F)(F)F [Example 140, (5α,8α)-2-(4-((R)-1-Ethoxy-2,2,2-trifluoroethyl)phenyl)-8-hydroxy-8-(methoxymethyl)-2-aza-spiro[4.5]decan-1-one]
15 | 30 | CC[C@]1(O)CC[C@]2(CCN(c3ccc(OC(F)(F)F)cc3)C2=O)CC1 [Example 60, (5α,8α)-8-Ethyl-8-hydroxy-2-(4-trifluoromethoxy-phenyl)-2-aza-spiro[4.5]decan-1-one]
16 | 10 | CC(OC[C@]1(O)CC[C@]2(CCN(c3ccc(OCC(F)(F)F)cc3)C2=O)CC1)C(F)(F)F (stereo partly drawn) [Example 292, (5α,8α)-8-Hydroxy-2-[4-(2,2,2-trifluoro-ethoxy)-phenyl]-8-(2,2,2-trifluoro-1-methyl-ethoxymethyl)-2-aza-spiro[4.5]decan-1-one]
17 | 1180 | CCC[C@]1(O)CC[C@@]2(CCN(c3ccc(C(O)C(F)(F)F)cc3)C2=O)CC1 (stereo partly drawn) [Example 134, (5α,8β)-8-Hydroxy-8-propyl-2-(4-(2,2,2-trifluoro-1-hydroxyethyl)phenyl)-2-aza-spiro[4.5]decan-1-one]
18 | 30 | O=C1N(c2ccc(OC(F)(F)F)cc2)CC[C@]12CC[C@@H](S(=O)(=O)c1ccccc1)CC2 [Example 53, (5α,8β)-8-Benzenesulfonyl-2-(4-trifluoromethoxy-phenyl)-2-aza-spiro[4.5]decan-1-one]
19 | 103 | C=Cc1nnn(C)c1[C@]1(O)CC[C@]2(CCN(c3ccc(OC(C)C)cc3)C2=O)CC1 [Example 222, (5α,8α)-8-hydroxy-2-(4-isopropoxyphenyl)-8-(1-methyl-4-vinyl-1H-1,2,3-triazol-5-yl)-2-aza-spiro[4.5]decan-1-one]
20 | 30 | COC[C@]1(O)CC[C@]2(CCN(c3ccc(O[C@H](C)C(F)(F)F)cc3)C2=O)CC1 [Example 147, (5α,8α)-8-Hydroxy-8-(methoxymethyl)-2-[4-((R)-2,2,2-trifluoro-1-methyl-ethoxy)-phenyl]-2-aza-spiro[4.5]decan-1-one]
21 | 560 | CC(C)[C@]1(O)CC[C@@]2(CCN(c3ccc(OC(F)(F)F)cc3)C2=O)CC1 [Example 69, (5α,8β)-8-Hydroxy-8-isopropyl-2-(4-trifluoromethoxy-phenyl)-2-aza-spiro[4.5]decan-1-one]
22 | 10 | CC(C)OC[C@]1(O)CC[C@]2(CCN(c3ccc(C(C)(C)C)cc3)C2=O)CC1 [Example 349, (5α,8α)-2-(4-tert-Butyl-phenyl)-8-hydroxy-8-isopropoxymethyl-2-aza-spiro[4.5]decan-1-one]
23 | 80 | CC[C@]1(O)CC[C@]2(CCN(c3ccc4c(c3)OC(F)(F)O4)C2=O)CC1 [Example 337, (5α,8α)-2-(2,2-Difluoro-benzo[1,3]dioxol-5-yl)-8-ethyl-8-hydroxy-2-aza-spiro[4.5]decan-1-one]
24 | 40 | CCCNC(=O)O[C@H]1CC[C@@]2(CCN(c3ccc(OC(F)(F)F)cc3)C2=O)CC1 [Example 11, Propyl-carbamic acid [(5α,8β)-1-oxo-2-(4-trifluoromethoxy-phenyl)-2-aza-spiro[4.5]dec-8-yl]ester]
25 | 80 | CNC(=O)O[C@H]1CC[C@@]2(CCN(c3ccc(OC(F)(F)F)cc3)C2=O)CC1 [Example 17, Methyl-carbamic acid [(5α,8β)-1-oxo-2-(4-trifluoromethoxy-phenyl)-2-aza-spiro[4.5]dec-8-yl]ester]
26 | 10 | CCC(CC)OC[C@]1(O)CC[C@]2(CCN(c3ccc(O[C@@H](C)C(F)(F)F)nc3)C2=O)CC1 [Example 328, (5α,8α)-8-(1-Ethyl-propoxymethyl)-8-hydroxy-2-[6-((S)-2,2,2-trifluoro-1-methyl-ethoxy)-pyridin-3-yl]-2-aza-spiro[4.5]decan-1-one]
27 | 250 | CC(=O)[C@]1(O)CC[C@]2(CCN(c3ccc(OCC(F)(F)F)cc3)C2=O)CC1 [Example 338, (5α,8α)-8-Acetyl-8-hydroxy-2-[4-(2,2,2-trifluoro-ethoxy)-phenyl]-2-aza-spiro[4.5]decan-1-one]
28 | 20 | CCc1ccc(N2CC[C@]3(CC[C@@](O)(COCC(F)(F)F)CC3)C2=O)cc1 [Example 231, (5α,8α)-2-(4-Ethyl-phenyl)-8-hydroxy-8-(2,2,2-trifluoro-ethoxymethyl)-2-aza-spiro[4.5]decan-1-one]

— US8440710B2, “HSL inhibitors useful in the treatment of diabetes” (Hoffmann-La Roche Inc., priority 2009, dated 2013)
